The source made the active and inactive calls.
Columns and labels:
[1] = biological target: T1, Paired amphipathic helix protein Sin3b (Mus musculus) (UniProt Q62141); assay: Inhibition of N-terminal GST-tagged mouse Sin3B PAH1 domain (28 to 107 residues) expressed in Escherichia coli BL21 (DE3) binding to NRSF/REST at 100 uM by 1H STD-NMR spectrometric analysis
T1 sequence (whole entry): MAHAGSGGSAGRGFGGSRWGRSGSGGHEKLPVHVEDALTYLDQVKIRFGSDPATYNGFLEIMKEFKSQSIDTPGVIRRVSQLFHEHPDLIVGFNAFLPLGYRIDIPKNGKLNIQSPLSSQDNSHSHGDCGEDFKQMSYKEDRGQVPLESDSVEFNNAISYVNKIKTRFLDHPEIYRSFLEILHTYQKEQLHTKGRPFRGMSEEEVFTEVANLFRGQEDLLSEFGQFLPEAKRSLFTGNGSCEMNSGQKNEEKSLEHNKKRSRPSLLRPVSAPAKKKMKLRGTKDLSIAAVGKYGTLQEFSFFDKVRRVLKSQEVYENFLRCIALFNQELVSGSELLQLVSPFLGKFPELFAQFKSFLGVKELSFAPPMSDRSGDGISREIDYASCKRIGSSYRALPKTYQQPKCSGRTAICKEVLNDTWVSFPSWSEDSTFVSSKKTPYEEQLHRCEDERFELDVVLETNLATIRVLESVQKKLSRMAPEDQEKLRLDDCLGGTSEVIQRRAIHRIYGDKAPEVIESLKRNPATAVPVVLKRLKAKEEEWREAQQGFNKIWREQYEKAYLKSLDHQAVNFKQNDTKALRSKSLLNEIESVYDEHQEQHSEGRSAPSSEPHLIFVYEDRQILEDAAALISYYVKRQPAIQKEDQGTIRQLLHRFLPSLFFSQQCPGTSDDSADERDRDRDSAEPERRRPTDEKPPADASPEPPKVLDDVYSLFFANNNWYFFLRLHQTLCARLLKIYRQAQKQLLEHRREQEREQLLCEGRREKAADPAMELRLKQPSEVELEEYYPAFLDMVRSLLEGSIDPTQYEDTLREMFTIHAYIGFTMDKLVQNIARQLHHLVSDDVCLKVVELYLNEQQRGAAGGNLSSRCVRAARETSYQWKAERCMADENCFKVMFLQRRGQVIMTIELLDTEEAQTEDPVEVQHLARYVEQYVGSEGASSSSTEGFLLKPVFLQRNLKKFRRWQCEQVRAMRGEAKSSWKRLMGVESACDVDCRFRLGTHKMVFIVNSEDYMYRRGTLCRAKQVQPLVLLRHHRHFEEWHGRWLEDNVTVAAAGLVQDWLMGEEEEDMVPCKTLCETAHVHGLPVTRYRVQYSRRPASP

Mus musculus [2] = assay: Antinociceptive activity in intermittent psychological stress treated partial sciatic nerve ligation C57BL/6J mouse model of fibromyalgia assessed as reversal of thermal hyperalgesia at 10 mg/kg, ip administered daily from day 5 to day 11 measured on day 12; assay type: functional, organism-based
Mus musculus [3] = assay: Antinociceptive activity in intermittent cold stress treated partial sciatic nerve ligation C57BL/6J mouse model of fibromyalgia assessed as paw withdrawal latency time at 10 mg/kg, ip measured on day 12 (reference value: 13 sec); assay type: functional
Mus musculus [4] = assay: Antinociceptive activity in partial sciatic nerve ligation C57BL/6J mouse model of neuropathic pain assessed as C-fiber stimulated paw withdrawal threshold at 10 mg/kg, ip measured on day 5 (reference value: 3 microA); assay type: functional
Mus musculus [5] = assay: Antinociceptive activity in intermittent psychological stress treated partial sciatic nerve ligation C57BL/6J mouse model of fibromyalgia assessed as paw withdrawal latency time at 10 mg/kg, ip measured on day 5 (reference value: 4 sec); assay type: functional
Mus musculus [6] = assay: Antinociceptive activity in intermittent cold stress treated partial sciatic nerve ligation C57BL/6J mouse model of fibromyalgia assessed as paw withdrawal latency time at 10 mg/kg, ip measured on day 5 (reference value: 10 sec); assay type: functional
Mus musculus [7] = assay: Antinociceptive activity in intermittent psychological stress treated partial sciatic nerve ligation C57BL/6J mouse model of fibromyalgia assessed as paw withdrawal latency time at 10 mg/kg, ip measured on day 5 (reference value: 3 sec); assay type: functional
Mus musculus [8] = assay: Antinociceptive activity in partial sciatic nerve ligation C57BL/6J mouse model of neuropathic pain assessed as reduction in peripheral morphine analgesia at 10 mg/kg, ip administered daily from day 5 to day 11 measured on day 12; assay type: functional, organism-based
Mus musculus [9] = assay: Antinociceptive activity in intermittent cold stress treated partial sciatic nerve ligation C57BL/6J mouse model of fibromyalgia assessed as reduction in central morphine analgesia at 10 mg/kg, ip administered daily from day 5 to day 11 measured on day 12; assay type: functional, organism-based
Mus musculus [10] = assay: Antinociceptive activity in partial sciatic nerve ligation C57BL/6J mouse model of neuropathic pain assessed as C-fiber stimulated paw withdrawal threshold at 10 mg/kg, ip measured on day 12 (reference value: 6 microA); assay type: functional
Mus musculus [11] = assay: Antinociceptive activity in partial sciatic nerve ligation C57BL/6J mouse model of neuropathic pain assessed as reduction in C-fiber stimulated hyposensitivity at 10 mg/kg, ip administered daily from day 5 to day 11 measured on day 12; assay type: functional, organism-based
[12] = biological target: T1, Paired amphipathic helix protein Sin3b (Mus musculus); assay: Binding affinity to N-terminal GST-tagged mouse Sin3B PAH1 domain (28 to 107 residues) expressed in Escherichia coli BL21 (DE3) assessed as chemical shift perturbations at 100 uM by 1H-15N HSQC titration analysis
Mus musculus [13] = assay: Antinociceptive activity in intermittent psychological stress treated partial sciatic nerve ligation C57BL/6J mouse model of fibromyalgia assessed as paw withdrawal latency time at 10 mg/kg, ip measured on day 12 (reference value: 4 sec); assay type: functional
Mus musculus [14] = assay: Antinociceptive activity in intermittent psychological stress treated partial sciatic nerve ligation C57BL/6J mouse model of fibromyalgia assessed as paw withdrawal latency time at 10 mg/kg, ip measured on day 19 (reference value: 4 sec); assay type: functional
Mus musculus [15] = assay: Antinociceptive activity in intermittent psychological stress treated partial sciatic nerve ligation C57BL/6J mouse model of fibromyalgia assessed as paw withdrawal latency time at 10 mg/kg, ip measured on day 12 (reference value: 3 sec); assay type: functional
Mus musculus [16] = assay: Antinociceptive activity in intermittent psychological stress treated partial sciatic nerve ligation C57BL/6J mouse model of fibromyalgia assessed as paw withdrawal latency time at 10 mg/kg, ip measured on day 19 (reference value: 3 sec); assay type: functional
Mus musculus [17] = assay: Antinociceptive activity in intermittent cold stress treated partial sciatic nerve ligation C57BL/6J mouse model of fibromyalgia assessed as reversal of thermal hyperalgesia at 10 mg/kg, ip administered daily from day 5 to day 11 measured on day 12; assay type: functional, organism-based
Mus musculus [18] = assay: Antinociceptive activity in intermittent psychological stress treated partial sciatic nerve ligation C57BL/6J mouse model of fibromyalgia assessed as reduction in central morphine analgesia at 10 mg/kg, ip administered daily from day 5 to day 11 measured on day 12; assay type: functional, organism-based

inhibition [1]	Activity [12]	Compound	Activity (Mus musculus [2])	Time (Mus musculus [3]) [s]	Activity (Mus musculus [4]) [microA]	Time (Mus musculus [5]) [s]	Time (Mus musculus [6]) [s]	Time (Mus musculus [7]) [s]	Activity (Mus musculus [8])	Activity (Mus musculus [9])	Activity (Mus musculus [10]) [microA]	Activity (Mus musculus [11])	Time (Mus musculus [13]) [s]	Time (Mus musculus [14]) [s]	Time (Mus musculus [15]) [s]	Time (Mus musculus [16]) [s]	Activity (Mus musculus [17])	Activity (Mus musculus [18])
Active	–	CCCC[C@H]1C(=O)N(CCC(C)C)C[C@@H]2N(C(=O)OC(C)C)CC3(CCCCC3)C(=O)N21	–	–	–	–	–	–	–	–	–	–	–	–	–	–	–	–
Active	Active	CC[C@H]1ON(C(=O)OC(C)C)[C@H]2CN(CCC(C)C)C(=O)[C@H](CCSC)N2C1=O	Active	13	3	4	10	3	Active	Active	6	Active	4	4	3	3	Active	Active

Source: ChEMBL document CHEMBL4043232, “A mimetic of the mSin3-binding helix of NRSF/REST ameliorates abnormal pain behavior in chronic pain models” (2017)
